Reference: ChEMBL document CHEMBL1212812, “Multi-target spectral moment QSAR versus ANN for antiparasitic drugs against different parasite species” (Bioorg Med Chem, 2010)
Where a name gives a salt, the structure may show the parent alone.

Tested on: Plasmodium falciparum
Test: Antimicrobial activity against Plasmodium falciparum
Format: functional, organism-based

Compound	IC50
Cc1nc2cnncc2n1-c1ccc(Cl)cc1C(=O)c1ccccc1Cl	1 µM
C=C[C@H]1CN2CC[C@H]1C[C@H]2[C@H](O)c1ccnc2ccccc12 [CINCHONIDINE]	27 µM
CCCCCCCCCC[N+](C)(C)CCCS(=O)(=O)[O-]	782 µM
N/C(=N\O)c1ccc(O)c(O)c1	23 µM
CC1C2c3ccccc3C(c3ccccc32)C1C(=O)/N=C/N(C)C (stereo not given)	49 µM
CC[N+](CC)(CC)CCCCCCCC[N+](CC)(CC)CC	1 µM
COc1cc(Cc2cnc(N)nc2N)ccc1OCc1ccccc1	5 µM
CCNCCCC(C)Nc1ccnc2cc(Cl)ccc12 (stereo not given) [DESETHYLCHLOROQUINE]	3 µM
O=C1NC(=O)/C(=C2/C(=O)Nc3ccccc32)S1	19 µM
CCN(CC)Cc1cc(Nc2ccnc3cc(Cl)ccc23)ccc1O	15 µM
CN(C)c1ccc(Nc2c3ccccc3nc3ccccc23)cc1	1 µM
O=C1Nc2ccccc2/C1=C\c1ccc(O)cc1	42 µM
COc1cc(NC(C)CCCN)c2nccc(C)c2c1OCCCCCc1ccccc1 (stereo not given)	5 µM
COc1ccc(Nc2c3ccc(N)cc3nc3cc(N)ccc23)cc1	1 µM
CCOC(=O)C1C2c3ccccc3C(c3ccccc32)C1C(=O)N(C)C (stereo not given)	33 µM
Nc1ccc(S(=O)(=O)c2ccc(N)cc2)cc1 [DAPSONE]	18 µM
NC(=O)C1C2c3ccccc3C(c3ccccc32)C1C(N)=O (single isomer, unassigned)	42 µM
O=P(O)(O)C(Nc1ccc(Cl)nc1)P(=O)(O)O	200 µM
CC(C)=CCC/C(C)=C/CC1(C)C(=O)S[C@@H](C)C1=O (stereo not given in full) [THIOLACTOMYCIN 11]	30 µM
CC1=C(O)[C@@](C)(CCC(C)CCCC(C)C)SC1=O (stereo not given in full) [THIOLACTOMYCIN 6]	71 µM
O=P(O)(O)C(NCCCc1ccccc1)P(=O)(O)O	200 µM
CCCOc1ccc(C2N=C(N)N=C(N)N2c2cccc(Cl)c2)cc1 (stereo not given)	3 µM
Cc1ccc(C(=O)/C=C2\C(=O)Nc3ccc(Br)cc32)cc1	3 µM
CCCNC(=O)CC[C@@H](C)[C@H]1CC[C@H]2[C@@H]3[C@H](OC(C)=O)C[C@@H]4CC5(CC[C@]4(C)[C@H]3CC[C@]12C)OOC1(CCC(CC)CC1)OO5 (single isomer, unassigned; form 2)	1 µM
CCOC(=O)c1ccc(N2CCN(c3ccc(C(=O)OCC)cc3)CC2)cc1	1 µM

Compound	IC50
CC(CCCN1CCCC1)Nc1ccnc2cc(Cl)ccc12 (stereo not given) [Chloroquine-pyrolidinyl]	44 µM
O=C1Nc2ccccc2/C1=C\c1ccc(Cl)cc1	37 µM
CN(C)CCC=C1c2ccccc2CCc2ccccc21 [AMITRIPTYLINE]	558 µM
CC(=O)/C=C1\C(=O)Nc2ccccc21	37 µM
CCCCCCCCCCOS(=O)(=O)O [SODIUM DECYL SULFATE]	460 µM
CCCCCCCCCCO[C@@H]1O[C@H](CO)[C@@H](O)[C@H](O)[C@H]1O	233 µM
CC[C@H]1CN2CCc3c([nH]c4ccc(O)cc34)[C@@H]2C[C@@H]1C[C@H]1c2[nH]c3ccccc3c2CCN1C	1 µM
O=P(O)(O)C(NC1CCCCCCC1)P(=O)(O)O [(CYCLOOCTYLAMINO)METHYLENEDIPHOSPHONIC ACID]	200 µM
CC1=C(O)[C@@](C)(CCC(C)C)SC1=O [THIOLACTOMYCIN 3]	259 µM
COc1cc(NC(C)CCCN)c2nccc(C)c2c1OCCCCCc1c(C)cccc1C (stereo not given)	22 µM
CCOC(=O)/C(C#N)=C1/C(=O)Nc2ccccc21	42 µM
Oc1ccc(Nc2ccnc3cc(Cl)ccc23)cc1CN1CCCC1 [AMOPYROQUINE]	30 µM
CC1SC(=O)C(C)(C)C1=O (stereo not given) [THIOLACTOMYCIN 10]	46 µM
CC(C)=CCC/C(C)=C/CC/C(C)=C/C[C@@]1(C)SC(=O)C(C)=C1O [THIOLACTOMYCIN 7]	8 µM
CC[C@H]1OC(=O)[C@H](C)[C@@H](O[C@H]2C[C@@](C)(OC)[C@@H](O)[C@H](C)O2)[C@H](C)[C@@H](O[C@@H]2O[C@H](C)C[C@H](N(C)C)[C@H]2O)[C@](C)(O)C[C@@H](C)C(=O)[C@H](C)[C@@H](O)[C@]1(C)O [ERYTHROMYCIN]	18 µM
CC(C)CCNC(P(=O)(O)O)P(=O)(O)O [(ISOPENTYLAMINO)METHYLENEDIPHOSPHONIC ACID]	200 µM
CNc1ccc(Nc2c3ccccc3nc3cc(Cl)ccc23)cc1	1 µM
CCN(CC)Cc1cc(Nc2ccnc3cc(Cl)ccc23)cc(-c2ccc(Cl)cc2)c1 [DEHYDROXY TEBAQUINE]	51 µM
Nc1nc(N)c(-c2cccc(Cl)c2)c(CCCO)n1	1 µM
C[C@H]1c2cccc(O)c2C(=O)C2=C(O)[C@]3(O)C(=O)C(C(N)=O)=C(O)[C@@H](N(C)C)[C@@H]3[C@@H](O)[C@@H]21 [DOXYCYCLINE]	18 µM
CN(C)[C@@H]1C(O)=C(C(=O)NCN2CCCC2)C(=O)[C@@]2(O)C(O)=C3C(=O)c4c(O)cccc4[C@@](C)(O)[C@H]3C[C@@H]12 [ROLITETRACYCLINE]	21 µM
COc1cc(NC(C)CCCN)c2nccc(C)c2c1OCc1cccc(C(F)(F)F)c1 (stereo not given)	2 µM
CCCCOc1ccc(NC(P(=O)(O)O)P(=O)(O)O)cc1	200 µM
C/N=C/c1c(O)[nH]c2ccccc12	57 µM
NC1=NC(c2cccc(Oc3ccc(Cl)cc3)c2)N(c2cccc(Cl)c2)C(N)=N1 (stereo not given)	4 µM

Compound	IC50
COc1cc(NC(C)CCCN)c2nccc(C)c2c1OCCCCCc1cccs1 (stereo not given)	3 µM
CCCCCCC1(C)N=C(N)N=C(N)N1c1cccc(Cl)c1 (stereo not given)	3 µM
CN(C)Cc1ccc(Nc2c3ccc(Cl)cc3nc3cc(Cl)ccc23)cc1	1 µM
CCN(CC)CCCC(C)Nc1c2ccc(Cl)cc2nc2ccc(OC)cc12 (stereo not given) [QUINACRINE]	41 µM
CC1=C(O)SC(C)C1=O (stereo not given) [THIOLACTONE]	471 µM
Cc1c(OCC(F)(F)F)ccnc1C[S+]([O-])c1nc2ccccc2[nH]1 (stereo not given) [LANSOPRAZOLE]	11 µM
CC1C2c3ccccc3C(c3ccccc32)C1C(=O)/N=N/N(C)C (stereo not given)	51 µM
Cc1nc(N)nc(N)c1Cc1ccc(OCc2ccccc2)c(OCc2ccccc2)c1	3 µM
CCCCN(CCCC)CCC(O)c1cc2c(Cl)cc(Cl)cc2c2cc(C(F)(F)F)ccc12 (stereo not given) [HALOFANTRINE]	185 µM
O=P(O)(O)C(NC1CCCCC1)P(=O)(O)O [(CYCLOHEXYLAMINO)METHYLENEDIPHOSPHONIC ACID]	200 µM
Cc1cc(C)nc(NC(P(=O)(O)O)P(=O)(O)O)c1	200 µM
CCCCCCCCCCCCCCCC[N+](C)(C)CCCS(=O)(=O)[O-]	65 µM
CC1C2c3ccccc3C(c3ccccc32)C1C(=O)Nc1ccccn1 (stereo not given)	214 µM
Nc1nc(N)c(-c2cccc(Cl)c2)c(CCCOC(=O)OCc2ccccc2)n1	2 µM
O=C1Nc2ccccc2/C1=C\c1ccc(C(F)(F)F)cc1	4 µM
c1cc(N2CCN(c3ccc(C4OCCO4)cc3)CC2)ccc1C1OCCO1	1 µM
CC(C)=CCC/C(C)=C/C[C@@]1(C)SC(=O)C(C)=C1O [THIOLACTOMYCIN 4]	8 µM
CN(C)C1C2c3ccccc3C(c3ccccc32)C1C(=O)O (stereo not given)	50 µM
C=C[C@H]1CN2CC[C@H]1C[C@@H]2[C@@H](O)c1ccnc2ccc(OC)cc12 [QUINIDINE]	24 µM
CCCCCCCCCCCCCCCCOS(=O)(=O)O [SODIUM HEXADECYL SULFATE]	145 µM
CCOC(=O)C1C2c3ccccc3C(c3ccccc32)C1N(C)C (stereo not given)	30 µM
CN(C)C(=O)C1=CC2c3ccccc3C1c1ccccc12	32 µM
COc1cc(NC(C)CCCN)c2nccc(C)c2c1OCc1ccc(C(F)(F)F)cc1 (stereo not given)	3 µM
O=C1NC(=S)S/C1=C1\C(=O)Nc2ccccc21	17 µM
C[C@H]1[C@H](OC(=O)CCC(=O)O)O[C@@H]2O[C@@]3(C)CC[C@H]4[C@H](C)CC[C@@H]1[C@@]24OO3 [ARTESUNATE]	3 µM

Compound	IC50
NC(=O)NO [HYDROXYUREA]	792 µM
CC(=O)C(N)c1cc(O)c(O)c(O)c1 (stereo not given)	301 µM
CC1C2c3ccccc3C(c3ccccc32)C1CN (stereo not given)	30 µM
C/C=C1/CN2CCc3c([nH]c4ccccc34)[C@@H]2C[C@@H]1Cc1nccc2c1[nH]c1ccccc12 [USAMBARENSINE]	2 µM
CC(C)(C)C(=O)/C=C1\C(=O)Nc2ccccc21	44 µM
CCNCc1cc(Nc2ccnc3cc(Cl)ccc23)ccc1O [DESETHYL AMODIAQUINE]	73 µM
CCc1nc(N)nc(N)c1Cc1ccc(OCc2ccccc2)c(OC)c1	5 µM
Nc1ncc(Cc2cccc(Oc3ccccc3)c2)c(N)n1	30 µM
O=C(O)C1C2c3ccccc3C(c3ccccc32)C1CBr (stereo not given)	40 µM
O=C(NO)c1ccc(O)c(O)c1	16 µM
CCCCCCCCCCCOCCOCCOCCOCCOCCO	68 µM
N=C(N)NCCCCCCCCCCNC(=N)N [SYNTHALIN]	16 µM
CC(CCCN)Nc1ccnc2cc(Cl)ccc12 (stereo not given) [BIDESETHYL CHLOROQUINE]	134 µM
CC1(C)Oc2c(c3nc4ccccc4nc3c3ccccc23)CC1Br (stereo not given)	9 µM
NNC(=O)c1ccc(N2CCN(c3ccc(C(=O)NN)cc3)CC2)cc1	1 µM
CS(=O)(=O)Nc1ccc(Nc2c3ccc(N)cc3nc3cc(N)ccc23)cc1	1 µM
Nc1nc(N)c(-c2cccc(Cl)c2)c(CCCc2ccccc2)n1	6 µM
COc1cc(Cc2c(C)nc(N)nc2N)ccc1OCc1ccccc1	3 µM
CCN(CC)Cc1cc(Nc2ccncc2)ccc1O	134 µM
COc1cc(NC(C)CCCN)c2nccc(C)c2c1OCCCCCc1ccc(C(F)(F)F)cc1 (stereo not given)	2 µM
CC[C@H]1OC(=O)[C@H](C)[C@@H](O[C@H]2C[C@@](C)(OC)[C@@H](O)[C@H](C)O2)[C@H](C)[C@@H](O[C@@H]2O[C@H](C)C[C@H](N(C)C)[C@H]2O)[C@](C)(O)C[C@@H](C)/C(=N\OCOCCOC)[C@H](C)[C@@H](O)[C@]1(C)O [ROXITHROMYCIN]	19 µM
CN(C)C1CC2c3ccccc3C1c1ccccc12 (stereo not given)	9 µM
C/C=C1/C[n+]2ccc3c([nH]c4ccccc43)c2C[C@@H]1C1=CN2c3ccccc3[C@]34CCN5C/C(=C/C)[C@H](C[C@H]53)[C@@H]([C@@H]1O)[C@H]24 [TETRADEHYDROLONGICAUDATINE]	1 µM
COc1cc(Cc2c(C)nc(N)nc2N)cc(OC)c1OC	23 µM
C=C[C@H]1CN2CC[C@H]1C[C@H]2[C@H](O)c1ccnc2ccc(OC)cc12 [QUININE]	54 µM
